Reference: the NIST ThermoML archive (doi:10.1016/j.jct.2014.04.017)
Numbers after ± are expanded uncertainties.

Settings: 101.33 kPa, Liquid, Buoyancy - hydrostatic balance

CCCn1cc[n+](C)c1.F[P-](F)(F)(F)(F)F [1-methyl-3-propylimidazolium hexafluorophosphate]
mass density (303.08 K): 1410.96 ± 0.46 kg/m3
mass density (313.18 K): 1402.37 ± 0.45 kg/m3
mass density (318.04 K): 1398.33 ± 0.45 kg/m3
mass density (323.07 K): 1393.53 ± 0.45 kg/m3
mass density (328.22 K): 1389.63 ± 0.45 kg/m3
mass density (333.39 K): 1385.32 ± 0.45 kg/m3
mass density (338.41 K): 1381.11 ± 0.44 kg/m3
mass density (343.27 K): 1377.03 ± 0.44 kg/m3
mass density (348.16 K): 1372.97 ± 0.44 kg/m3
mass density (352.56 K): 1369.14 ± 0.44 kg/m3
mass density (358.11 K): 1364.85 ± 0.44 kg/m3
mass density (364.89 K): 1359.36 ± 0.44 kg/m3

C[n+]1cc[nH]c1.O=S(=O)([N-]S(=O)(=O)C(F)(F)F)C(F)(F)F [1-methylimidazolium bis(trifluoromethylsulfonyl)imide]
mass density (323.28 K): 1614.04 ± 2.1 kg/m3
mass density (325.58 K): 1610.84 ± 2.1 kg/m3
mass density (328.01 K): 1607.46 ± 2.1 kg/m3
mass density (330.51 K): 1605.18 ± 2.1 kg/m3
mass density (333.62 K): 1601.54 ± 2.1 kg/m3
mass density (335.65 K): 1599.35 ± 2.1 kg/m3
mass density (338.58 K): 1596.52 ± 2.1 kg/m3
mass density (340.97 K): 1593.47 ± 2 kg/m3
mass density (343.62 K): 1590.71 ± 2 kg/m3

CCCCCC[n+]1ccn(C)c1.O=S(=O)([N-]S(=O)(=O)C(F)(F)F)C(F)(F)F
mass density (262.98 K): 1405.31 ± 0.54 kg/m3
mass density (268.26 K): 1400.21 ± 0.54 kg/m3
mass density (272.74 K): 1395.9 ± 0.54 kg/m3
mass density (278.03 K): 1390.98 ± 0.54 kg/m3
mass density (283.18 K): 1385.8 ± 0.54 kg/m3
mass density (288.12 K): 1381.67 ± 0.54 kg/m3
mass density (292.84 K): 1377.27 ± 0.54 kg/m3
mass density (298.15 K): 1372.76 ± 0.54 kg/m3
mass density (303.13 K): 1368.35 ± 0.54 kg/m3
mass density (308.26 K): 1362.94 ± 0.54 kg/m3
mass density (313.34 K): 1358.8 ± 0.54 kg/m3
mass density (318.28 K): 1354.33 ± 0.54 kg/m3
mass density (323.34 K): 1349.1 ± 0.54 kg/m3
mass density (328.18 K): 1345.78 ± 0.54 kg/m3
mass density (332.77 K): 1341.44 ± 0.54 kg/m3
mass density (338.51 K): 1336.76 ± 0.54 kg/m3
mass density (343.65 K): 1332.79 ± 0.54 kg/m3
mass density (348.22 K): 1328.79 ± 0.54 kg/m3
mass density (352.66 K): 1324.84 ± 0.54 kg/m3
mass density (358.06 K): 1320.79 ± 0.54 kg/m3
mass density (364.78 K): 1314.72 ± 0.54 kg/m3

CCCC[n+]1cccc(C)c1.F[P-](F)(F)(F)(F)F [1-butyl-3-methylpyridinium hexafluorophosphate]
mass density (322.98 K): 1321.09 ± 0.35 kg/m3
mass density (327.57 K): 1317.44 ± 0.34 kg/m3
mass density (333.44 K): 1312.89 ± 0.34 kg/m3
mass density (338.78 K): 1308.72 ± 0.34 kg/m3
mass density (343.67 K): 1304.93 ± 0.34 kg/m3
mass density (348.19 K): 1301.53 ± 0.34 kg/m3
mass density (353.1 K): 1297.87 ± 0.33 kg/m3
mass density (358.08 K): 1294.06 ± 0.33 kg/m3
mass density (364.61 K): 1289.01 ± 0.33 kg/m3

CCn1cc[n+](C)c1.O=S(=O)([N-]S(=O)(=O)C(F)(F)F)C(F)(F)F
mass density (261.46 K): 1556.58 ± 1 kg/m3
mass density (268.29 K): 1548.72 ± 1 kg/m3
mass density (273.3 K): 1544.02 ± 1 kg/m3
mass density (278.37 K): 1539.04 ± 1 kg/m3
mass density (282.48 K): 1535.02 ± 1 kg/m3
mass density (287.45 K): 1529.96 ± 1 kg/m3
mass density (293.11 K): 1524.41 ± 1 kg/m3
mass density (298.13 K): 1519.52 ± 1 kg/m3
mass density (302.98 K): 1514.33 ± 1 kg/m3
mass density (308.32 K): 1508.35 ± 1 kg/m3
mass density (313.89 K): 1503.28 ± 1 kg/m3
mass density (318.09 K): 1498.65 ± 1 kg/m3
mass density (323.34 K): 1493.84 ± 1 kg/m3
mass density (328.03 K): 1488.18 ± 1 kg/m3
mass density (333.55 K): 1483.58 ± 1 kg/m3
mass density (337.88 K): 1479.01 ± 1 kg/m3
mass density (342.95 K): 1473.82 ± 1 kg/m3
mass density (348.1 K): 1469.36 ± 1 kg/m3
mass density (352.98 K): 1464.95 ± 1 kg/m3
mass density (357.53 K): 1460.04 ± 1 kg/m3
mass density (363.55 K): 1453.65 ± 1 kg/m3

CCCCn1cc[n+](C)c1C.F[P-](F)(F)(F)(F)F [1-butyl-2,3-dimethylimidazolium hexafluorophosphate]
mass density (308.17 K): 1342.4 ± 0.49 kg/m3
mass density (313.09 K): 1338.43 ± 0.48 kg/m3
mass density (318.12 K): 1334.34 ± 0.48 kg/m3
mass density (323.15 K): 1330.39 ± 0.48 kg/m3
mass density (328.24 K): 1326.32 ± 0.48 kg/m3
mass density (333.37 K): 1322.54 ± 0.48 kg/m3
mass density (338.85 K): 1318.34 ± 0.48 kg/m3
mass density (343.33 K): 1314.8 ± 0.48 kg/m3
mass density (347.97 K): 1310.87 ± 0.48 kg/m3
mass density (352.71 K): 1307.2 ± 0.48 kg/m3
mass density (357.94 K): 1302.89 ± 0.47 kg/m3
mass density (364.63 K): 1298.26 ± 0.47 kg/m3

CCCC[n+]1ccn(C)c1.O=S(=O)([N-]S(=O)(=O)C(F)(F)F)C(F)(F)F
mass density (274.86 K): 1458.44 ± 0.56 kg/m3
mass density (277.17 K): 1456.4 ± 0.56 kg/m3
mass density (281.91 K): 1452.1 ± 0.56 kg/m3
mass density (287.89 K): 1446.21 ± 0.56 kg/m3
mass density (293.45 K): 1441.4 ± 0.56 kg/m3
mass density (298.34 K): 1436.71 ± 0.56 kg/m3
mass density (303.07 K): 1432.1 ± 0.56 kg/m3
mass density (308.18 K): 1426.64 ± 0.56 kg/m3
mass density (313.04 K): 1422.13 ± 0.56 kg/m3
mass density (318.02 K): 1417.45 ± 0.56 kg/m3
mass density (323.1 K): 1412.39 ± 0.56 kg/m3
mass density (328.17 K): 1407.64 ± 0.56 kg/m3
mass density (333.42 K): 1403.16 ± 0.56 kg/m3
mass density (338.42 K): 1398.52 ± 0.56 kg/m3
mass density (343.02 K): 1394.25 ± 0.56 kg/m3
mass density (348.36 K): 1389.71 ± 0.56 kg/m3
mass density (352.89 K): 1385.06 ± 0.56 kg/m3
mass density (358.03 K): 1380.66 ± 0.56 kg/m3
mass density (364.37 K): 1374.57 ± 0.56 kg/m3
